Patent US9512083B2, “Histone deacetylase 6 selective inhibitors for the treatment of bone disease” (The General Hospital Corporation, priority 2012, dated 2016)
“Also recorded” adds a separate entry of the source.

Assays:
[1] = tested on: pERK, pAkt, c-fos in OCLs; assay: Immunoblot of signaling pathway in OCLs; format: cell-based, human; details: OCLs differentiated 10 days, treated with Compound A and or bortezomib 24 hours
Source text: Samples were then subjected to sodium dodecyl sulfate-polyacrylamide gel electrophoresis, transferred to PVDF membrane, and immunoblotted with antibodies against pAkt, Akt, and c-fos (Cell Signaling Technology, Beverly, Mass.) or phosphorylated extracellular signal-regulated kinase (pERK). Antigen-antibody complexes were detected by enhanced chemiluminescence (Amersham, Arlington Heights, Ill.). The membrane was stripped and reprobed with antitubulin antibody to ensure equal protein loading. Films were scanned and densitometric analysis performed.

Sirtuin 2 = molecular target: T1, Sirtuin 2 (Homo sapiens, UniProt Q8IXJ6); assay: HDAC enzyme assay, Sirtuin 2; format: biochemical
T1 sequence (Q8IXJ6 1-389): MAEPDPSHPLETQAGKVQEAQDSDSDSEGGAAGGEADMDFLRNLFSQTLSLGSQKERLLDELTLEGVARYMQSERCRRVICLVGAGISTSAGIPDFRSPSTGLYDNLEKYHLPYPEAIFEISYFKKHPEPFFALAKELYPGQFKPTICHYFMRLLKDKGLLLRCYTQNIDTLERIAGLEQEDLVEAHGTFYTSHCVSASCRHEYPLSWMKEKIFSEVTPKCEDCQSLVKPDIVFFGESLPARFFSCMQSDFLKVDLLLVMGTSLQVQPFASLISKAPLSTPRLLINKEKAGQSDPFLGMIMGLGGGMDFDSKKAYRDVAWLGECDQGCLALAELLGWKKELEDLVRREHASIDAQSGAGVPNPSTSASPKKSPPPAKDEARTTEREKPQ

ac-α-tubulin [2] = assay: Immunohistochemistry of ac-α-tubulin in CD138+ MM patient cells; format: cell-based, human; details: treated vs control
Sirtuin 1 = molecular target: T2, Sirtuin 1 (Homo sapiens, UniProt Q96EB6); assay: HDAC enzyme assay, Sirtuin 1; format: biochemical
T2 sequence (Q96EB6 1-747): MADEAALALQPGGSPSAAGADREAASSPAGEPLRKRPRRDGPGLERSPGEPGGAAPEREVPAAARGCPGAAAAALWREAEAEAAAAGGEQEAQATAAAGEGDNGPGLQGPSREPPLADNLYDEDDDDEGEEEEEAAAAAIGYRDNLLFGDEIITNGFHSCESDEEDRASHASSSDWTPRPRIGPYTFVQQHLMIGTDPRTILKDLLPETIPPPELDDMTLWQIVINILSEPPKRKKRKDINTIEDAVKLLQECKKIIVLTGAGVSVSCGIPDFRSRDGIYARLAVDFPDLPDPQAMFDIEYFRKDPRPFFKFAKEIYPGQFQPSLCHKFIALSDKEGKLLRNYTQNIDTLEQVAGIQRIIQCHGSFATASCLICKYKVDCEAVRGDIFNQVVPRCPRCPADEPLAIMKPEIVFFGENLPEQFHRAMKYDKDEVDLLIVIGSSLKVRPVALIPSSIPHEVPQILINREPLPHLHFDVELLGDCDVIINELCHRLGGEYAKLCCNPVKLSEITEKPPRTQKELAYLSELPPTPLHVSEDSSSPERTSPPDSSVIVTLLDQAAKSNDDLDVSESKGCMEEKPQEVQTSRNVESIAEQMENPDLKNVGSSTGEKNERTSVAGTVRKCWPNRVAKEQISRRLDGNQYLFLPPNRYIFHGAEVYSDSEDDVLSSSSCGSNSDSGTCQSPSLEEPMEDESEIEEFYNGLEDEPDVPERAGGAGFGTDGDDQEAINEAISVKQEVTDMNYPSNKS

ac-α-tubulin [3] = assay: Western blot of ac-α-tubulin in CD138+ MM patient cells; format: cell-based, human; details: 2 μM, 4 hours
acetyl-Histone H3 = assay: Immunohistochemistry of acetyl-Histone H3 in CD138+ MM patient cells; format: cell-based, human; details: treated vs control
[4] = tested on: acetylation of lysine on Histone H3 and Histone H4; assay: Acetylation of Histone H3 and H4 in MM.1S cells; format: cell-based; details: compared to SAHA
[5] = tested on: osteoblasts (OBLs) differentiated from BMSCs derived from MM patients; assay: AlamarBlue viability assay of osteoblasts; format: cell-based, human; details: Compound A 1 μM and/or bortezomib 2.5 nM, 10-14 and 21 days
Procedure: Alamarblue was added to the wells to a final concentration of 10% alamar blue and the plates were incubated at […] and 5% CO2 for 1 to 4 hours. The plates were read at absorbance (OD) of 530 nm and 600 nm. The delta OD was recorded and the date were plotted as percentage of control.
The control (ctr) represents the OBL without any treatment. Cell viability was assessed by Alamarblue assay (a redox indicator that yields a colorimetric change and a fluorescent signal in a response to a metabolic activity) (Invitrogen, Carlsbad, Calif.). […] (FIG. 1A alarm blue after 14 days of differentiation in BMSC derived from patient 1, FIG. 1C alarm blue after 21 days of differentiation in BMSC derived from the same patient, FIG. 2A alarm blue after 14 days of differentiation in BMSC derived from patient 2, FIG. 2C alarm blue after 21 days of differentiation in BMSC derived from patient 2, FIG. 3A alarm blue after 10 days of differentiation in BMSC derived from patient 3).

[6] = tested on: osteoclasts differentiated from MM patient bone marrow; assay: PIT formation assay (bone resorption); format: cell-based, human; details: Compound A 1 μM and/or bortezomib 2.5 nM, 7 days
Procedure: OC activity was assayed by bone resorption enumerating resorption pits. Briefly, mononuclear cells (1.8×10^6 cell/well) from MM patient bone marrow were cultured in a 24-well plate coated with a synthetic carbonate apatite (CaP) (Cosmo Bio Co., Ltd, Tokio, Japan) and stimulated with RANKL (25 ng/ml) and M-CSF (25 ng/ml). […] On day 7 the conditioned medium was removed from each well and the wells were treated with 5% sodium hypochlorite for five minutes. After washing and drying, resorption pits were photographed by light microscopy and quantified by Image J software. Each pit area assay was performed at least 3 times with BM from different donors.

[7] = tested on: osteoblasts (OBLs) differentiated from BMSCs derived from MM patients; assay: Alkaline phosphatase (ALP) activity assay of osteoblasts; format: cell-based, human; details: Compound A 1 μM and/or bortezomib 2.5 nM, 10-14 and 21 days
Procedure: Following the AlamarBlue cell viability assay, the wells were then washed twice with PBS fixed for 5 minutes and washed again with distilled water and Alkaline Phosphatase Yellow (pNPP) Liquid Substrate System for ELISA (sigma-aldrich) was added to the wells. The plates were read at OD of 405 nm after 5 minutes of incubation.
(FIG. 1B ALP after 14 days of differentiation in BMSC derived from patient 1, FIG. 1D ALP after 21 days of differentiation in BMSC derived from the same patient, FIG. 2B ALP after 14 days of differentiation in BMSC derived from patient 2, FIG. 2D ALP after 21 days of differentiation in BMSC derived from patient 2, FIG. 3B ALP after 10 days of differentiation in BMSC derived from patient 3).

acetylated α-tubulin = assay: Acetylation of α-tubulin in MM.1S cells; format: cell-based; details: increasing doses, 18 hours
[8] = tested on: osteoblasts (OBLs) differentiated from BMSCs derived from MM patients; assay: Alizarin red staining of calcium deposits in osteoblasts; format: cell-based, human; details: OBLs differentiated in presence of Compound A and/or bortezomib, 23 days
Source text: To evaluate calcium deposition, osteoblasts were washed with PBS and fixed after 23 days of treatment and assayed by alizarin red staining (Alizarin red solution, Millipore) that specifically stains mineralization area. The mineralization areas were visualized using Nikon Labophot-2 microscope with 10×/0.25 lens equipped with SPOT-insight QE camera.
The results shown in FIG. 4A “CTR alpha-mem” represent the BMSCs that have not been differentiated in OBL. The results shown in FIG. 4B “CRT OBL medium” represent the OBL without any treatment.

[9] = tested on: osteoclasts (OCLs) differentiated from PBMCs from MM patients; assay: Osteoclastogenesis, TRAP staining; format: cell-based, human

## O=C(CCCCCCNC(=O)c1cnc(N(c2ccccc2)c2ccccc2)nc1)NO [Compound A, 2-(diphenylamino)-N-(7-(hydroxyamino)-7-oxoheptyl)pyrimidine-5-carboxamide]
[1]
  pERK, pAkt and c-fos expression (immunoblot): downregulation of pERK, pEKT and cFOS expression
Sirtuin 2; Sirtuin 2
  IC50: > 10 µM
Sirtuin 2; sirtuin 2, text (minimal activity)
  IC50: > 1 µM
ac-α-tubulin [2]
  ac-α-tubulin, immunohistochemistry (IHC): significant increase of ac-α-tubulin was observed in treated compared to control cells
Sirtuin 1; Sirtuin 1
  IC50: > 10 µM
Sirtuin 1; sirtuin 1, text (minimal activity)
  IC50: > 1 µM
ac-α-tubulin [3]
  ac-α-tubulin, Western blot: significant increase of ac-α-tubulin in treated compared to control cells
acetyl-Histone H3
  acetyl-Histone H3, immunohistochemistry (IHC): without any significant increase in acetyl-Histone H3
[4]
  acetylation of lysine on Histone H3 and Histone H4: less potent acetylation of lysine on Histone H3 and Histone H4 compared to SAHA
[5]
  viability of OBLs (AlamarBlue): does not induce cytotoxicity on OBL cells; also recorded: does not affect the viability of osteoblasts (OBLs)
[6]
  PIT formation (resorption pits): significantly arrested PIT formation
[7]
  OBLs function (alkaline phosphatase (ALP) activity): increases OBLs function; also recorded: increases the alkaline phosphate activity
Acetylated α-tubulin
  acetylated α-tubulin: dose dependent significant increase in the acetylated α-tubulin was observed even in the presence of low doses (0.04 μM)
[8]
  calcium deposits (Alizarin red staining): increases calcium deposits in OBL cells
[9]; compared with bortezomib or untreated control wells, 7 and 14 days
  number of OCLs (multinucleated TRAP-positive cells) per well: significantly decreases the number of OCLs; also recorded: inhibits osteoclastogenesis
[9]; days 7 and 14 of osteoclast differentiation
  number of OCLs (multinucleated TRAP-positive cells) per well, dose dependence: decreases the number of OCLs (multinucleated TRAP-positive cells) per well in a dose dependent manner; also recorded: inhibits osteoclastogenesis in a dose-dependent manner
